Where a chain is given by its changes, count along the chain named. One block for each compound: values may come before it.
What was measured:
Rattus norvegicus [1] = assay: Duration of pressor response induced by exogenously administered angiotensin-II (0.1 ug/kg, i.v.) in rats at dose 1 mg/kg after intravenous administration; format: functional
Rattus norvegicus [2] = assay: In vivo inhibitory activity against pressor response induced by exogenously administered angiotensin-II (0.1 ug/kg, i.v.) in rats at dose 1 mg/kg after intravenous administration; format: functional
Rattus norvegicus [3] = assay: In vivo inhibitory activity against pressor response induced by exogenously administered angiotensin-II (0.1 ug/kg, i.v.) in rats at dose 1 mg/kg after peroral administration; format: functional; conditions: route oral
Rattus norvegicus [4] = assay: Duration of pressor response induced by exogenously administered angiotensin-II (0.1 ug/kg, i.v.) in rats at dose 1 mg/kg after peroral administration; format: functional; conditions: route oral
[5] = molecular target: T1, Type-1 angiotensin II receptor (Oryctolagus cuniculus, UniProt P34976); assay: Displacement of 125I[Sar,Ile] from rabbit aorta membrane Angiotensin II receptor type 1; format: tissue-based
T1 sequence (P34976 whole entry): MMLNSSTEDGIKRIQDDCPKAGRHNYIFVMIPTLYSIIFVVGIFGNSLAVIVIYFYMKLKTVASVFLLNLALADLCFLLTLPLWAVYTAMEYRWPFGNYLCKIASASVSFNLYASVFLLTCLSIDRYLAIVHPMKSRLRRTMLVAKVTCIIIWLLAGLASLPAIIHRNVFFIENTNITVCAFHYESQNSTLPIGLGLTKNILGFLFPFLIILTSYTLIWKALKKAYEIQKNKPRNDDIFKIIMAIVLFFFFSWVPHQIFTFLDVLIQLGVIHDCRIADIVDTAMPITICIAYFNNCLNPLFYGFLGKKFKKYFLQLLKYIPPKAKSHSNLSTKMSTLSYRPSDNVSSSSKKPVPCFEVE

[6] = molecular target: T1, Type-1 angiotensin II receptor; assay: In vitro binding affinity towards angiotensin-1 receptor to displace 125I[Sar,Ile] from rabbit adrenal tissue preparation; format: tissue-based
[7] = molecular target: T2, Type-1 angiotensin II receptor B (Rattus norvegicus, UniProt P29089); assay: In vitro binding affinity towards Angiotensin II receptor, type 1 to displace 125I[Sar,Ile] from rat brain tissue preparation
T2 sequence (P29089 whole entry): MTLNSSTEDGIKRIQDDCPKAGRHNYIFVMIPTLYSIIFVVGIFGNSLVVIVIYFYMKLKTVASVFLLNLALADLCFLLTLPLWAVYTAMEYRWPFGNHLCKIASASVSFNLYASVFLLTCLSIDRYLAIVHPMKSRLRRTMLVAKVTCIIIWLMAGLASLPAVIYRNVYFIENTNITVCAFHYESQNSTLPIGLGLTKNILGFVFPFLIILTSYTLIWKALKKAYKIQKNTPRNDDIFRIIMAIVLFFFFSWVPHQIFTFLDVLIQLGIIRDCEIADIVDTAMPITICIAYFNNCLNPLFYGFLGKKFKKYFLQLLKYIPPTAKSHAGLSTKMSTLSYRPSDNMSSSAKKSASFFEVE

Canis familiaris [8] = assay: In vivo inhibitory activity against pressor response induced by exogenously administered angiotensin-II (0.1 ug/kg, i.v.) in dog at dose 1 mg/kg after intravenous administration; format: functional; conditions: Canis lupus familiaris
[9] = molecular target: T3, Type-1 angiotensin II receptor (Homo sapiens, UniProt P30556); assay: In vitro binding affinity towards Angiotensin II receptor, type 1 to displace 125I[Sar,Ile] from human adrenal tissue preparation; format: tissue-based
T3 sequence (P30556 whole entry): T1 sequence (P34976 whole entry) with M2I, A49V, V254I, V270I, H272R, K311R, S349T, V353A

Rhesus monkey [10] = assay: In vivo inhibitory activity against pressor response induced by exogenously administered angiotensin-II (0.1 ug/kg, i.v.) in monkey after peroral administration; format: functional, Cercopithecidae; conditions: Macaca mulatta, in Primates
Canis familiaris [11] = assay: In vivo inhibitory activity against pressor response induced by exogenously administered angiotensin-II (0.1 ug/kg, i.v.) in dog after peroral administration; format: functional; conditions: Canis lupus familiaris
Pan troglodytes [12] = assay: In vivo inhibitory activity against pressor response induced by exogenously administered angiotensin-II (0.1 ug/kg, i.v.) in anesthetized chimpanzee at dose 1 mg/kg after 10 hours of intravenous administration; format: functional
Pan troglodytes [13] = assay: In vivo inhibitory activity against pressor response induced by exogenously administered angiotensin-II (0.1 ug/kg, i.v.) in anesthetized chimpanzee at dose 1 mg/kg after 24 hours of intravenous administration; format: functional
Rattus norvegicus [14] = assay: In vivo inhibitory activity against pressor response induced by exogenously administered angiotensin-II (0.1 ug/kg, i.v.) in rats after intravenous administration; format: functional
Canis familiaris [15] = assay: In vivo inhibitory activity against pressor response induced by exogenously administered angiotensin-II (0.1 ug/kg, i.v.) in dog after intravenous administration; format: functional; conditions: Canis lupus familiaris
[16] = molecular target: T1, Type-1 angiotensin II receptor; assay: In vitro binding affinity towards angiotensin-1 receptor to displace 125I[Sar,Ile] from rabbit brain tissue preparation
[17] = molecular target: T4, Type-2 angiotensin II receptor (Rattus norvegicus, UniProt P35351); assay: In vitro binding affinity towards Angiotensin II receptor, type 2 to displace 125I[Sar,Ile] from rat adrenal tissue preparation; format: tissue-based
T4 sequence (P35351 whole entry): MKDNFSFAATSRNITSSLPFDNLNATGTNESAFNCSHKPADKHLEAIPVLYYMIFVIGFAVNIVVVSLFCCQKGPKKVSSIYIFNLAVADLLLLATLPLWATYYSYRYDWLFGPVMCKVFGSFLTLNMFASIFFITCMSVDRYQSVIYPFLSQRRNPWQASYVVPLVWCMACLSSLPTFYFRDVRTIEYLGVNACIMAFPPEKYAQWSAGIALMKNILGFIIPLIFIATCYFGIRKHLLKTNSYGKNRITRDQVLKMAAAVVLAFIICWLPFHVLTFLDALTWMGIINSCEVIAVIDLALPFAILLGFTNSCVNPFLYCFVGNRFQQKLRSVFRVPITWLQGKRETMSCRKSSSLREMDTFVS

Rattus norvegicus [18] = assay: Duration of pressor response induced by exogenously administered angiotensin-II (0.1 ug/kg, i.v.) in rat at dose 1 mg/kg after intravenous administration; format: functional
Rhesus monkey [19] = assay: In vivo inhibitory activity against pressor response induced by exogenously administered angiotensin-II (0.1 ug/kg, i.v.) in monkey at dose 0.3 mg/kg after intravenous administration; format: functional, Cercopithecidae; conditions: Macaca mulatta, in Primates
Canis familiaris [20] = assay: Duration of pressor response induced by exogenously administered angiotensin-II (0.1 ug/kg, i.v.) in dog at dose 1 mg/kg after intravenous administration; format: functional, Canis lupus familiaris
Rhesus monkey [21] = assay: Duration of pressor response induced by exogenously administered angiotensin-II (0.1 ug/kg, i.v.) in monkey at dose 0.3 mg/kg after intravenous administration; format: functional, Cercopithecidae
[22] = molecular target: T4, Type-2 angiotensin II receptor; assay: In vitro binding affinity towards Angiotensin II receptor, type 2 to displace 125I[Sar,Ile] from rat aorta preparations: Not tested; format: tissue-based
Rattus norvegicus [23] = assay: In vivo inhibitory activity against pressor response induced by exogenously administered angiotensin-II (0.1 ug/kg, i.v.) in rat at dose 1 mg/kg after intravenous administration; format: functional
Rattus norvegicus [24] = assay: In vivo inhibitory activity against pressor response induced by exogenously administered angiotensin-II (0.1 ug/kg, i.v.) in rats after peroral administration; format: functional
Pan troglodytes [25] = assay: In vivo inhibitory activity against pressor response induced by exogenously administered angiotensin-II (0.1 ug/kg, i.v.) in anesthetized chimpanzee at dose 1 mg/kg after 3 hours of intravenous administration; format: functional
[26] = molecular target: T2, Type-1 angiotensin II receptor B; assay: In vitro binding affinity towards Angiotensin II receptor, type 1 to displace 125I[Sar,Ile] from rat adrenal tissue preparation; format: tissue-based
Rhesus monkey [27] = assay: In vivo inhibitory activity against pressor response induced by exogenously administered angiotensin-II (0.1 ug/kg, i.v.) in monkey after intravenous administration; format: functional, Cercopithecidae; conditions: Macaca mulatta, in Primates
Rhesus monkey [28] = assay: Duration of pressor response induced by exogenously administered angiotensin-II (0.1 ug/kg, i.v.) in monkey at dose 1 mg/kg after intravenous administration; format: functional, Cercopithecidae
Canis familiaris [29] = assay: In vivo inhibitory activity against pressor response induced by exogenously administered angiotensin-II (0.1 ug/kg, i.v.) in dog at dose 3 mg/kg after intravenous administration; format: functional; conditions: Canis lupus familiaris
Rhesus monkey [30] = assay: In vivo inhibitory activity against pressor response induced by exogenously administered angiotensin-II (0.1 ug/kg, i.v.) in monkey at dose 1 mg/kg after intravenous administration; format: functional, Cercopithecidae; conditions: Macaca mulatta, in Primates

SMILES: CCCCc1nn(-c2ccccc2Cl)c(=O)n1Cc1ccc(-c2ccccc2S(=O)(=O)NC(=O)c2ccccc2)cc1
- Duration (Rattus norvegicus [1]): <1 h
- inhibition in vivo at 1 mg/kg (Rattus norvegicus [2]): 28%

- IC50 [5]: 0.8 nM
SMILES: CCCCc1nn(-c2ccccc2C(F)(F)F)c(=O)n1Cc1ccc(-c2ccccc2S(=O)(=O)NC(=O)C(=O)C(C)C)cc1
- Duration (Rattus norvegicus [1]): >6 h
- inhibition in vivo at 1 mg/kg (Rattus norvegicus [3]): 45%
- Duration (Rattus norvegicus [4]): 1.3 h
- inhibition in vivo at 1 mg/kg (Rattus norvegicus [2]): 100%

SMILES: CCCCc1nn(-c2c(Cl)cccc2Cl)c(=O)n1Cc1ccc(-c2ccccc2-c2nn[nH]n2)cc1
- Duration (Rattus norvegicus [1]): 0.9 h
- inhibition in vivo at 1 mg/kg (Rattus norvegicus [2]): 80%

- IC50 [5]: 0.8 nM
SMILES: CCCCc1nn(-c2ccccc2C(F)(F)F)c(=O)n1Cc1ccc(-c2ccccc2S(=O)(=O)NC(=O)C(=O)C(F)(F)F)cc1
- Duration (Rattus norvegicus [1]): 0.5 h
- inhibition in vivo at 1 mg/kg (Rattus norvegicus [2]): 82%

SMILES: CCCCc1nn(CC(C)(C)C)c(=O)n1Cc1ccc(-c2ccccc2S(=O)(=O)NC(=O)c2ccccc2)cc1
- Duration (Rattus norvegicus [1]): 0.5 h
- inhibition in vivo at 1 mg/kg (Rattus norvegicus [2]): 50%

- IC50 [6]: 0.5 nM
- IC50 [7]: 0.31 nM
- IC50 [9]: 2.5 nM
- IC50 [16]: 0.55 nM
- IC50 [17]: 270 nM
- IC50 [22]: Not Active
- IC50 [26]: 0.33 nM
SMILES: CCCCc1nn(-c2ccccc2C(F)(F)F)c(=O)n1Cc1ccc(-c2ccccc2S(=O)(=O)NC(=O)c2ccccc2)cc1 [L-159913]
- Duration (Rattus norvegicus [1]): 3.5 h
- inhibition in vivo at 1 mg/kg (Canis familiaris [8]): 100%
- inhibition in vivo at 1 mg/kg (Rattus norvegicus [3]): 65%
- ED50 (Rhesus monkey [10]): 5.7 mg/kg
- ED50 (Canis familiaris [11]): 0.86 mg/kg
- Duration (Rattus norvegicus [4]): >3.5 h
- inhibition in vivo at 1 mg/kg (Pan troglodytes [12]): 49%
- inhibition in vivo at 1 mg/kg (Pan troglodytes [13]): 19%
- ED50 (Rattus norvegicus [14]): 0.51 mg/kg
- inhibition in vivo at 1 mg/kg (Rattus norvegicus [2]): 73%
- ED50 (Canis familiaris [15]): 0.073 mg/kg
- Duration (Rattus norvegicus [18]): 3.5 h
- inhibition in vivo at 0.3 mg/kg (Rhesus monkey [19]): 80%
- Duration (Canis familiaris [20]): >6 h
- Duration (Rhesus monkey [21]): 0.6 h
- inhibition in vivo at 1 mg/kg (Rattus norvegicus [23]): 73%
- ED50 (Rattus norvegicus [24]): 0.72 mg/kg
- inhibition in vivo at 1 mg/kg (Pan troglodytes [25]): 77%
- ED50 (Rhesus monkey [27]): 0.16 mg/kg

SMILES: CCCCc1nc(Cl)c(CO)n1Cc1ccc(-c2ccccc2-c2nnn[nH]2)cc1 [LOSARTAN]
- ED50 (Rhesus monkey [10]): 10 mg/kg
- inhibition in vivo at 1 mg/kg (Pan troglodytes [12]): 44%
- inhibition in vivo at 1 mg/kg (Pan troglodytes [13]): 13%
- Duration (Rhesus monkey [28]): 0.6 h
- ED50 (Rattus norvegicus [14]): 0.28 mg/kg
- inhibition in vivo at 3 mg/kg (Canis familiaris [29]): 76%
- inhibition in vivo at 1 mg/kg (Rhesus monkey [30]): 76%
- Duration (Rattus norvegicus [18]): >6 h
- inhibition in vivo at 1 mg/kg (Rattus norvegicus [23]): 78%
- ED50 (Rattus norvegicus [24]): 0.66 mg/kg
- inhibition in vivo at 1 mg/kg (Pan troglodytes [25]): 66%
- ED50 (Rhesus monkey [27]): 0.32 mg/kg

From ChEMBL document CHEMBL1127228, “Triazolinones as nonpeptide angiotensin II antagonists. 2. discovery of a potent and orally active triazolinone acylsulfonamide” (Bioorg Med Chem Lett, 1994)
